# Tests used:
# blood sugar level [1] = assay: Blood sugar lowering activity, fed AγKK (AYKK) mouse, hereditary diabetic; assay type: in vivo; settings: for Blood Sugar Level (control = 100), 1 Hr / Blood Sugar Level (control = 100), 2 Hrs / Blood Sugar Level (control = 100), 3 Hrs / Blood Sugar Level (control = 100), 5 Hrs: fed AγKK mouse
# Method: (§1) The compounds of the present invention were orally administered to normal rats, mice, dogs and hereditary diabetic mice(AYKK-mice), and the blood sugar lowering activity was examined.
# (§2) Test animals which were used included animals which had been fasted for 24 hours to achieve an empty stomach, and animals which had been fed to achieve a full stomach without any restriction of diet. A sample aqueous solution or suspension was orally administered, and blood was sampled with the passage of time from the tail vein or the cephalic vein in order to determine the level of blood sugar by the glucose-oxidase method.
# blood sugar level [2] = assay: Blood sugar lowering activity, fasted beagle; assay type: in vivo, beagle dog; settings: 25 mg/kg PO
# Method: as §1, §2
# blood sugar level [3] = assay: Blood sugar lowering activity, fasted rat; assay type: in vivo
# Method: as §1, §2
# blood sugar level [4] = assay: Glucose tolerance test in AYKK mice; assay type: in vivo, AYKK mouse; settings: glucose 1 g/kg, sum of increments at 15, 30, 60, 90 min vs control, 100 = no improvement
# Method: (§3) One index for the treatment of diabetes is to improve this glucose tolerance. The compound of the present invention was orally administered to normal rats, Streptozotocin-induced mildly diabetic rats and AYKK-mice, and thereafter glucose was administered intraperitoneally 1 hour later, and the glucose tolerance was examined. […] Further, a lowering of blood sugar in the glucose tolerance test using normal rats was examined with the passage of time, and the results obtained are given in Table 1 below.
# (§4) A sample aqueous solution or suspension was orally administered to the test animals which had been fasted for 24 hours and one hour later glucose was intraperitoneally or subcutaneously administered to the test animals. Thereafter, blood was sampled from the tail vein with the passage of time in order to determine the blood sugar level by the glucose-oxidase method.
# *5AYKK-mouse was obtained by mating a yellow mouse having symptoms of […]
# [5] = test system: blood platelet aggregation induced by collagen in rat platelet rich plasma; assay: Blood platelet aggregation inhibiting activity (collagen induced, in vitro); assay type: cell-based; settings: read-out: Platelet Aggregation Inhibition Activity, ID50
# Method: It is generally said that blood platelet aggregability is accelerated in a diabetes patient and that this secondarily causes blood vessel disorders. […] Thus, based on this the compounds of the present invention are expected to be useful in preventing and improving the secondary vasular lesions of diabetes mellitus.
# Citrated rat blood was centrifuged in order to obtain platelet rich plasma, and to 0.4 ml of this plasma was added 50 μl of sample solution. To the resulting solution was added 50 μl of collagen suspension under stirring, and platelet aggregation reaction was determined according to the method of Born [Nature, Vol. 194, pp. 927 (1962)]. The concentration of the sample (ID50) which inhibits 50% of the aggregation reaction of the control without the test sample added is shown in Table 6 below.
# blood sugar level [6] = assay: Glucose tolerance test in normal rats (oral compound, glucose load 1 hour later); assay type: in vivo, normal rat; settings: for Glucose Tolerance Improving Activity / Blood Glucose Level, 0 min / Blood Glucose Level, 15 min / Blood Glucose Level, 30 min / Blood Glucose Level, 60 min / Blood Glucose Level, 90 min / Blood Glucose Level, before glucose load (-60 min.): glucose 2 g/kg; for Glucose Tolerance Improving Activity: sum of increments at 15, 30, 60, 90 min vs control, 100 = no improvement
# Method: as §3, §4
# blood sugar level [7] = assay: Blood sugar lowering activity, fed mouse; assay type: in vivo
# Method: as §1, §2
# Acute toxicity (rat) = settings: in vivo, read-out: Acute Toxicity (rat) ID50
# serum lactate level = assay: Influence on serum lactate level, repeated administration for 4 days; assay type: in vivo, normal rat
# Method: The biguanide drugs heretofore used as a treatment for diabetes are said undesirably to cause acidosis due to an increase of serum lactate level when such drugs are repeatedly administered. The compounds of the present invention were repeatedly administered for 4 days to normal rats and the serum lactate level was determined every day to compare such with the administration of phenformine which is one example of a biguanide drug.
# Compound A was repeatedly administered for 4 days to normal rats in a dosage of 200 mg/kg/day, and blood was sampled with the passage of time in order to determine the serum lactate level.
# blood insulin [8] = assay: Insulin releasing action, fed mice; assay type: in vivo, mouse
# Method: (§5) Among the test animals fed rats were anesthetized by administration of pentobarbital (40 mg/kg, ip), and administered, intravenously with an isotonic sodium chloride solution of Compound A. An aqueous solution of the sample was orally administered to fed mice. In both cases blood was sampled from the tail vein with the passage of time, and the blood insulin was determined by the radioimmunoassay method of Morgen et al [Diabetes, Vol. 12, pp 115 (1963)]. At the same time blood sugar was also determined. […] The amount of insulin released in Table 4 was obtained by determining the difference between the blood insulin level at 5 points (5, 10, 20, 30, 40 minutes) during a 40 minute period after administration of the sample in the case of rats or 3 points (0.5, 1.0, 2.0 hours) during a 2 hour period after administration of the sample in the case of mice and the blood insulin level at 0 minute just before administration of the sample and then by summing up these differences.
# blood insulin [9] = assay: Insulin releasing action, fed rats; assay type: in vivo, rat; settings: 50 mg/kg iv
# Method: as §5
# blood sugar level [10] = assay: Glucose tolerance test in streptozotocin-induced mildly diabetic rats; assay type: in vivo, rat (Wistar strain); settings: 20 mg/kg PO; glucose 1 g/kg; sum of increments at 15, 30, 60, 90 min vs control; 100 = no improvement
# Method: as §3, §4
# *4The streptozotocin-induced mildly diabetic rats were produced by […]
compound,measurement,setting,value
"c1ccc(C(CC2=NCCN2)c2ccccn2)cc1 (stereo not shown) [Compound B, 2-[2-phenyl-2-(2-pyridyl)]ethylimidazoline]","Blood Sugar Level (control = 100), 1 Hr",blood sugar level [1]; 25 mg/kg PO,77%
same,"Blood Sugar Level (control = 100), 2 Hrs",blood sugar level [1]; 25 mg/kg PO,75%
same,"Blood Sugar Level (control = 100), 3 Hrs",blood sugar level [1]; 25 mg/kg PO,72%
same,"Blood Sugar Level (control = 100), 5 Hrs",blood sugar level [1]; 25 mg/kg PO,78%
same,"Blood Sugar Level (control = 100), 1 Hr",blood sugar level [2]; 1 h,76%
same,"Blood Sugar Level (control = 100), 2 Hrs",blood sugar level [2]; 2 h,58%
same,"Blood Sugar Level (control = 100), 3 Hrs",blood sugar level [2]; 3 h,70%
same,"Blood Sugar Level (control = 100), 5 Hrs",blood sugar level [2]; 5 h,71%
same,"Blood Sugar Level (control = 100), 1 Hr",blood sugar level [3]; 10 mg/kg PO,71%
same,"Blood Sugar Level (control = 100), 2 Hrs",blood sugar level [3]; 10 mg/kg PO,67%
same,"Blood Sugar Level (control = 100), 3 Hrs",blood sugar level [3]; 10 mg/kg PO,58%
same,"Blood Sugar Level (control = 100), 5 Hrs",blood sugar level [3]; 10 mg/kg PO,73%
same,"Blood Sugar Level (control = 100), 1 Hr",blood sugar level [3]; 25 mg/kg PO,83%
same,"Blood Sugar Level (control = 100), 2 Hrs",blood sugar level [3]; 25 mg/kg PO,68%
same,"Blood Sugar Level (control = 100), 3 Hrs",blood sugar level [3]; 25 mg/kg PO,68%
same,"Blood Sugar Level (control = 100), 5 Hrs",blood sugar level [3]; 25 mg/kg PO,76%
same,Glucose Tolerance Improving Activity,blood sugar level [4]; 25 mg/kg PO,62.7%
same,IC50,[5],300 µM
same,Glucose Tolerance Improving Activity,blood sugar level [6]; 10 mg/kg PO,22.0%
same,"Blood Glucose Level, 0 min",blood sugar level [6]; 10 mg/kg,74 ± 3 mg/dL
same,"Blood Glucose Level, 15 min",blood sugar level [6]; 10 mg/kg,91 ± 9 mg/dL
same,"Blood Glucose Level, 30 min",blood sugar level [6]; 10 mg/kg,91 ± 5 mg/dL
same,"Blood Glucose Level, 60 min",blood sugar level [6]; 10 mg/kg,79 ± 4 mg/dL
same,"Blood Glucose Level, 90 min",blood sugar level [6]; 10 mg/kg,68 ± 5 mg/dL
same,"Blood Glucose Level, before glucose load (-60 min.)",blood sugar level [6]; 10 mg/kg,90 ± 2 mg/dL
same,blood sugar level maintained after glucose load,"blood sugar level [6]; normal rats, Table 1, in words",maintains the blood sugar level in the range of the fasting blood sugar level
same,rise in blood sugar level due to the glucose load,"blood sugar level [6]; normal rats, Table 1, in words",scarcely any rise in blood sugar level
same,"Blood Sugar Level (control = 100), 1 Hr",blood sugar level [7]; 25 mg/kg PO,77%
same,"Blood Sugar Level (control = 100), 2 Hrs",blood sugar level [7]; 25 mg/kg PO,68%
same,"Blood Sugar Level (control = 100), 3 Hrs",blood sugar level [7]; 25 mg/kg PO,78%
same,"Blood Sugar Level (control = 100), 5 Hrs",blood sugar level [7]; 25 mg/kg PO,86%
same,LD50,Acute toxicity (rat),867 mg/kg
[H]/N=C(/N)N/C(=N/[H])NCCc1ccccc1 [Phenformin],"Serum Lactate Level, 0 Day","serum lactate level; 0 Day, Compound A 200 mg/kg/day (phenformin dose not given)",1.061±0.099 μ mol/ml
same,"Serum Lactate Level, After 1 Day","serum lactate level; After 1 Day, Compound A 200 mg/kg/day (phenformin dose not given)",2.086±0.066 μ mol/ml
same,"Serum Lactate Level, After 4 Days","serum lactate level; After 4 Days, Compound A 200 mg/kg/day (phenformin dose not given)",3.009±0.641 μ mol/ml
same,increase in serum lactate level,"serum lactate level; repeated administration for 4 days, normal rats, in words",remarkable increase in serum lactate level
"CCCCNC(=O)NS(=O)(=O)c1ccc(C)cc1 [Tolbutamide, reference compound]","Blood Sugar Level (control = 100), 1 Hr",blood sugar level [1]; 50 mg/kg PO,94%
same,"Blood Sugar Level (control = 100), 2 Hrs",blood sugar level [1]; 50 mg/kg PO,86%
same,"Blood Sugar Level (control = 100), 3 Hrs",blood sugar level [1]; 50 mg/kg PO,86%
same,"Blood Sugar Level (control = 100), 5 Hrs",blood sugar level [1]; 50 mg/kg PO,92%
same,effectiveness on AYKK-mice (blood sugar lowering),"blood sugar level [1]; oral, AYKK-mice, in words",uneffective
same,"Blood Sugar Level (control = 100), 1 Hr",blood sugar level [3]; 10 mg/kg PO,96%
same,"Blood Sugar Level (control = 100), 2 Hrs",blood sugar level [3]; 10 mg/kg PO,89%
same,"Blood Sugar Level (control = 100), 3 Hrs",blood sugar level [3]; 10 mg/kg PO,92%
same,"Blood Sugar Level (control = 100), 5 Hrs",blood sugar level [3]; 10 mg/kg PO,91%
same,"Blood Sugar Level (control = 100), 1 Hr",blood sugar level [3]; 25 mg/kg PO,90%
same,"Blood Sugar Level (control = 100), 2 Hrs",blood sugar level [3]; 25 mg/kg PO,80%
same,"Blood Sugar Level (control = 100), 3 Hrs",blood sugar level [3]; 25 mg/kg PO,76%
same,"Blood Sugar Level (control = 100), 5 Hrs",blood sugar level [3]; 25 mg/kg PO,82%
same,Blood Sugar Level,"blood insulin [8]; fed mice, 50 mg/kg po, after 2 hours, control = 100",95.7%
same,Amount of Insulin Released,"blood insulin [8]; fed mice, 50 mg/kg po, sum of differences at 0.5, 1.0, 2.0 hours",-2.2±3.3 μunit/ml
same,insulin releasing action in mice,"blood insulin [8]; mice, in words",little action on insulin release
same,Glucose Tolerance Improving Activity,blood sugar level [4]; 50 mg/kg PO,69.6%
same,Glucose Tolerance Improving Activity,blood sugar level [6]; 20 mg/kg PO,64.5%
same,"Blood Glucose Level, 0 min",blood sugar level [6]; 20 mg/kg,79 ± 2 mg/dL
same,"Blood Glucose Level, 15 min",blood sugar level [6]; 20 mg/kg,121 ± 5 mg/dL
same,"Blood Glucose Level, 30 min",blood sugar level [6]; 20 mg/kg,114 ± 5 mg/dL
same,"Blood Glucose Level, 60 min",blood sugar level [6]; 20 mg/kg,98 ± 5 mg/dL
same,"Blood Glucose Level, 90 min",blood sugar level [6]; 20 mg/kg,90 ± 4 mg/dL
same,"Blood Glucose Level, before glucose load (-60 min.)",blood sugar level [6]; 20 mg/kg,80 ± 2 mg/dL
same,Blood Sugar Level,"blood insulin [9]; after 90 minutes, control = 100",56%
same,Amount of Insulin Released,"blood insulin [9]; sum of differences at 5, 10, 20, 30, 40 min",189±26 μunit/ml
same,"Blood Sugar Level (control = 100), 1 Hr",blood sugar level [7]; 50 mg/kg PO,95%
same,"Blood Sugar Level (control = 100), 2 Hrs",blood sugar level [7]; 50 mg/kg PO,92%
same,"Blood Sugar Level (control = 100), 3 Hrs",blood sugar level [7]; 50 mg/kg PO,74%
same,"Blood Sugar Level (control = 100), 5 Hrs",blood sugar level [7]; 50 mg/kg PO,96%
same,Glucose Tolerance Improving Activity,blood sugar level [10],67.4%
